The text below walks through data of ChEMBL document CHEMBL5038632, “Discovery and Characterization of Potent Dual P-Glycoprotein and CYP3A4 Inhibitors: Design, Synthesis, Cryo-EM Analysis, and Biological Evaluations” (J Med Chem, 2022).

The target in one data set is Cytochrome P450 3A4 (Homo sapiens, UniProt P08684). Kind of data set: Inhibition of CYP3A4 in human liver microsomes using IPA as substrate preincubated for 10 mins followed by NADPH generating system addition and measured after 20 mins.
The nature of data set [1]: Efflux ratio of apparent permeability across apical to basolateral to basolateral to apical membrane membrane in MDCK1 at 1 uM. Format: ADME, cell-based, Canis lupus familiaris. To be noted: dog, MDCK.
Data set [2] can be described thus: Efflux ratio of apparent permeability across apical to basolateral to basolateral to apical membrane membrane in MDCK1 at 1 uM in presence of valspodar. To be noted: dog, MDCK, with valspodar (concentration not stated). Format: ADME, cell-based, Canis lupus familiaris.
In the next data set the test system is MES-SA/Dx5. As to the kind of experiment: Cytotoxicity in human MES-SA/Dx5 cells assessed as reduction in cell viability at 1.28 uM incubated for 3 days by MTT assay relative to control. The note with it: mes-sa/dx5, 72 h, time 3 day. Format: toxicity, cell-based. For orientation: Tetrazolium assays rely on reduction of a dye to a coloured formazan, in cell work by metabolically active cells.

For data set [3], the system named is MDR1. Kind of data set: Efflux ratio of apparent permeability across apical to basolateral to basolateral to apical membrane in MDCKII-MDR1 at 1 uM. Format: ADME, cell-based, Canis lupus familiaris. The note with it: dog, MDCK-MDR1.
Data set [4] relates to MDR1. Kind of data set: Efflux ratio of apparent permeability across apical to basolateral to basolateral to apical membrane membrane in MDCKII-MDR1at 1 uM in presence of valspodar. Format: ADME, cell-based, Canis lupus familiaris. To be noted: dog, MDCK-MDR1, with valspodar (concentration not stated).
Data set [5] deals with MDR1. As to the kind of experiment: Apparent permeability across basolateral side to apical side in MDCKII-MDR1 cells at 1 uM by LC/MS/MS analysis. Format: ADME, cell-based, Canis lupus familiaris. To be noted: dog, MDCK-MDR1.
Data set [6] deals with MDR1. As to the kind of experiment: Apparent permeability across apical to basolateral side in MDCKII-MDR1 cells at 3 uM by LC/MS/MS analysis. Format: ADME, cell-based, Canis lupus familiaris. To be noted: dog, MDCK-MDR1.
The test system of data set [7] is MDR1. Kind of data set: Apparent permeability across basolateral side to apical side in MDCKII-MDR1 cells at 3 uM by LC/MS/MS analysis. Format: ADME, cell-based, Canis lupus familiaris. The note with it: dog, MDCK-MDR1.
A short description of data set [8]: AUC (0 to t) in CD-1 mouse at 20 mg/kg, po 30 mins prior to 10 mg/kg, po docetaxel administration measured after 8 hrs by LC-MS/MS analysis. To be noted: in vivo. Also on record: route oral, dose 20 mg/kg, time 8.5 hrs. Format: ADME, organism-based.
Data set [9] is described as follows: Efflux ratio of apparent permeability across apical to basolateral to basolateral to apical membrane membrane in MDCK1 at 3 uM in presence of valspodar. Format: ADME, cell-based, Canis lupus familiaris. The note with it: dog, MDCK, with valspodar (concentration not stated).
The test system of data set [10] is MDR1. As to the kind of experiment: Efflux ratio of apparent permeability across apical to basolateral to basolateral to apical membrane membrane in MDCKII-MDR1at 3 uM in presence of valspodar. To be noted: dog, MDCK-MDR1, with valspodar (concentration not stated). Format: ADME, cell-based, Canis lupus familiaris.
The nature of data set [11]: Half life in CD-1 mouse at 20 mg/kg, po 30 mins prior to 10 mg/kg, po docetaxel administration measured after 8 hrs by LC-MS/MS analysis. To be noted: in vivo, time 8.5 hrs. Format: ADME, organism-based.
The subject of data set [12] is MDR1. As to the kind of experiment: Efflux ratio of apparent permeability across apical to basolateral to basolateral to apical membrane membrane in MDCKII-MDR1 at 3 uM. Format: ADME, cell-based, Canis lupus familiaris. To be noted: dog, MDCK-MDR1.
A short description of data set [13]: Cmax in CD-1 mouse at 20 mg/kg, po by LC-MS/MS analysis. Format: ADME, organism-based. Also on record: route oral, dose 20 mg/kg. To be noted: in vivo.
Data set [14] can be described thus: Apparent permeability across apical to basolateral side in MDCK1 cells at 3 uM by LC/MS/MS analysis. Format: ADME, cell-based, Canis lupus familiaris. The note with it: dog, MDCK.
Data set [15] is described as follows: Tmax in CD-1 mouse at 20 mg/kg, po 30 mins prior to 10 mg/kg, po docetaxel administration measured after 8 hrs by LC-MS/MS analysis. Format: ADME, organism-based. The note with it: in vivo, time 8.5 hrs.
Data set [16] can be described thus: Apparent permeability across basolateral side to apical side in MDCK1 cells at 3 uM by LC/MS/MS analysis. Format: ADME, cell-based, Canis lupus familiaris. To be noted: dog, MDCK.
Data set [17] can be described thus: Cmax in CD-1 mouse at 20 mg/kg, po 30 mins prior to 10 mg/kg, po docetaxel administration measured after 8 hrs by LC-MS/MS analysis. To be noted: in vivo. Format: ADME, organism-based. Also on record: route oral, time 8.5 hrs, dose 20 mg/kg.
Data set [18] can be described thus: Efflux ratio of apparent permeability across apical to basolateral to basolateral to apical membrane membrane in MDCK1 at 3 uM. Format: ADME, cell-based, Canis lupus familiaris. To be noted: dog, mdck1, 3 µM.

pIC50: −log10 of the molar value. Where only a bound is given, the exact number is not on record here.

Chain of Cytochrome P450 3A4 (P08684 whole entry): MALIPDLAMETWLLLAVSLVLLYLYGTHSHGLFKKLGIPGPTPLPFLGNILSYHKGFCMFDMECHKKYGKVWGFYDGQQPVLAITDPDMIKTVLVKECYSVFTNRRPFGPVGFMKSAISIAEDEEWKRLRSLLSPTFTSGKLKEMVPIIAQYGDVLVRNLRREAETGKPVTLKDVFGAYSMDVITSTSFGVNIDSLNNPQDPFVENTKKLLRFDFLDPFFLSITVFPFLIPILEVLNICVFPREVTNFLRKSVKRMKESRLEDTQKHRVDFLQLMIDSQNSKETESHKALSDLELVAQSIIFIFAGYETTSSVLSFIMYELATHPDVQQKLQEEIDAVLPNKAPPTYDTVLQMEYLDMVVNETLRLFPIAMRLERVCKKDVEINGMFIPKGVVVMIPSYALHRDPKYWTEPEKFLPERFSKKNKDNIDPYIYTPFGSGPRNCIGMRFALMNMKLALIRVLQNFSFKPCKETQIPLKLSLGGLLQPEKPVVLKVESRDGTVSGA

Take `COc1cc2c(cc1OC)CN(CCc1ccc(-n3nnc(-c4cc(OC)c(OC)cc4NC(=O)c4cc(=O)c5ccccc5o4)n3)cc1)CC2`: the pIC50 (as a rule, the IC50 on a negative log10 scale, so that one unit is a factor of ten) at Cytochrome P450 3A4 was less than 5.05. For the same compound, the efflux ratio – broadly, the permeability from basolateral to apical divided by that in the opposite direction, in the common usage – at 1 µM in data set [1] was determined as 1.83; in [2] it was 1.36; with MDR1 [3] it was 5.74; with MDR1 [4], 1.73. The Activity in the data set with MES-SA/Dx5 turned out to be 6%. Moreover, the Papp B→A – broadly, the apparent permeability from the basolateral to the apical side of a cell layer – at 1 µM in the data set on MDR1 [5] is 0.0049 ×10⁻⁶ cm/s.
In the case of `COc1cc2c(cc1OC)CN(CCc1ccc(-n3nnc(-c4cc(OCCc5cccnc5)ccc4NC(=O)c4cc(=O)c5ccccc5o4)n3)cc1)CC2`, at Cytochrome P450 3A4, the pIC50 is 6.14. Also, in the data set with MES-SA/Dx5, the Activity was 1%.
`COc1cc2c(cc1OC)CN(CCc1ccc(-n3nnc(-c4cc(OC)c(OC)cc4NC(=O)c4ccc(-c5cccnc5)cc4)n3)cc1)CC2` gave a pIC50 at Cytochrome P450 3A4 of less than 5.05. For the same compound, the Activity in the data set on MES-SA/Dx5 was found to be 0%.
The corresponding values for `COc1cc2c(cc1OC)CN(CCc1ccc(-n3nnc(-c4cc(Oc5ccncc5)ccc4NC(=O)c4cc(=O)c5ccccc5o4)n3)cc1)CC2` are less than 5.05 and 9%.
On Cytochrome P450 3A4, `COc1cc2c(cc1OC)CN(CCc1ccc(-n3nnc(-c4cc(OCc5cccnc5)c(OC)cc4NC(=O)c4cc(=O)c5ccccc5o4)n3)cc1)CC2` showed a pIC50 of less than 5.05. Also, in the data set on MES-SA/Dx5, the Activity is on record as 36%.
`COc1cc2c(cc1OC)CN(CCc1ccc(-n3nnc(-c4cc(OC)c(OC)cc4NC(=O)c4cc(=O)c5cc(-c6ccncc6)ccc5o4)n3)cc1)CC2` showed a pIC50 on Cytochrome P450 3A4 of less than 5.05. Moreover, in the data set with MES-SA/Dx5, the Activity was 1%.
Taken in the same sequence, the figures for `COc1cc(NC(=O)c2cc(=O)c3ccccc3o2)c(-c2nnn(-c3ccc(CCN4CCc5ccncc5C4)cc3)n2)cc1OC` were 5.98 and 1%.
Taken in the same sequence, the figures for `COc1cc2c(cc1OC)CN(CCc1ccc(-n3nnc(-c4cc(OCc5ccncc5)ccc4NC(=O)c4cc(=O)c5ccccc5o4)n3)cc1)CC2` were less than 5.05 and 33%.
The corresponding values for `COc1cc2c(cc1OC)CN(CCc1ccc(-n3nnc(-c4cc(OC)c(OC)cc4NC(=O)c4cc(=O)c5cc(Br)ccc5o4)n3)cc1)CC2` are less than 5.05 and 30%.
On Cytochrome P450 3A4, `COc1cc2c(cc1OC)CN(CCc1ccc(-n3nnc(-c4cc(OCc5cccnc5)ccc4NC(=O)c4cc(=O)c5ccccc5o4)n3)cc1)CC2` showed a pIC50 of less than 5.05. The Activity with MES-SA/Dx5 amounted to 3%.
`COc1cc(NC(=O)c2cc(=O)c3ccccc3o2)c(-c2nnn(-c3ccc(CCN4CCn5cncc5C4)cc3)n2)cc1OCc1ccccc1`: in the data set on MDR1 [6], the Papp A→B (usually the apparent permeability from the apical to the basolateral side of a cell layer) at 3 µM was less than 0.02 ×10⁻⁶ cm/s. Besides, at Cytochrome P450 3A4, the pIC50 is 5.69. Moreover, the Activity in the data set on MES-SA/Dx5 worked out at 13%. Besides, in the data set on MDR1 [7], the Papp B→A at 3 µM is less than 0.02 ×10⁻⁶ cm/s.
For the compound `COc1cc2c(cc1OC)CN(CCc1ccc(-n3nnc(-c4cc(OC)c(OC)cc4NC(=O)c4cc(=O)c5cc(-n6ccnc6)ccc5o4)n3)cc1)CC2`, the pIC50 against Cytochrome P450 3A4 is 5.48. In the data set with MES-SA/Dx5, the Activity is reported as 6%.
Take `COc1cc(NC(=O)c2cc(=O)c3ccccc3o2)c(-c2nnn(-c3ccc(CCN4CCc5cnccc5C4)cc3)n2)cc1OC`: in the data set on MDR1 [6], the apparent permeability from apical to basolateral (Papp A→B) at 3 µM is less than 0.02 ×10⁻⁶ cm/s. This compound had a pIC50 at Cytochrome P450 3A4 of 5.97. Moreover, in the data set with MES-SA/Dx5, the Activity is 1%. Also, the Papp B→A at 3 µM in the data set on MDR1 [7] was less than 0.02 ×10⁻⁶ cm/s.
As for `COc1cc2c(cc1OC)CN(CCc1ccc(-n3nnc(-c4cc(OC)c(OC)cc4NC(=O)c4ccc(-n5ccnc5)cc4)n3)cc1)CC2`, the pIC50 against Cytochrome P450 3A4 is 6.29. Further, the Activity with MES-SA/Dx5 is recorded as 5%.
The corresponding values for `COc1cc(NC(=O)c2cc(=O)c3ccccc3o2)c(-c2nnn(-c3ccc(CCN4CCc5ccc(-n6ccnc6)cc5C4)cc3)n2)cc1OC` are 6.40 and 1%.
As to `COc1cc2c(cc1OC)CN(CCc1ccc(-n3nnc(-c4cc(Oc5cccnc5)ccc4NC(=O)c4cc(=O)c5ccccc5o4)n3)cc1)CC2`, the Papp A→B at 3 µM with MDR1 [6] stood at 0.0072 ×10⁻⁶ cm/s; in data set [14], 0.0093 ×10⁻⁶ cm/s. In [8], the AUC(0-t) (commonly the area under the concentration-time curve up to a stated or last time point) at 8.5 h is 11.7 ng·h/mL. The compound also showed a pIC50 against Cytochrome P450 3A4 of 5.83. In addition, the efflux ratio at 3 µM worked out at 0.085 in [9], 0.093 in the data set with MDR1 [10] and 0.277 in the data set with MDR1 [12]. Also, the half-life (usually the time in which the quantity being followed falls by half) in data set [11] was 6.02 h. Further, the maximum concentration (Cmax) (commonly the maximum level reached in the sampled fluid or tissue) in data set [13] amounted to 3.4 nM; in [17] it was 2.46 ng/mL. The Activity with MES-SA/Dx5 came to 2%. Moreover, the Tmax (in general, the time from dosing to the highest level) in data set [15] was 0.5 h. Further, the Papp B→A at 3 µM was 0.002 ×10⁻⁶ cm/s with MDR1 [7] and less than 0.002 ×10⁻⁶ cm/s in data set [16]. Besides, the Ratio in data set [18] is less than 0.22.
For the compound `COc1cc(NC(=O)c2cnc3ccccc3c2)c(-c2nnn(-c3ccc(CCN4CCc5cnccc5C4)cc3)n2)cc1OCc1ccccc1`, the pIC50 on Cytochrome P450 3A4 was 6.07. Moreover, in the data set with MES-SA/Dx5, the Activity is on record as 3%.
The corresponding values for `COc1cc(NC(=O)c2cc(=O)c3ccccc3o2)c(-c2nnn(-c3ccc(CCN4CCc5cnccc5C4)cc3)n2)cc1OCc1ccccc1` are 5.91 and 3%.
Taken in the same sequence, the figures for `COc1cc(NC(=O)c2cc(=O)c3ccccc3o2)c(-c2nnn(-c3ccc(CCN4CCn5cncc5C4)cc3)n2)cc1OC` were 6.83 and 6%.
On Cytochrome P450 3A4, `COc1cc2c(cc1OC)CN(CCc1ccc(-n3nnc(-c4cc(OCc5ccccc5)c(OC)cc4NC(=O)c4cc(=O)c5ccccc5o4)n3)cc1)CC2` had a negative logarithm of the IC50 (pIC50) of less than 5.05. The Activity in the data set on MES-SA/Dx5 was 30%.
For `COc1cc2c(cc1OC)CN(CCc1ccc(-n3nnc(-c4cc(OC)c(OC)cc4NC(=O)c4ccc(-c5ccncc5)cc4)n3)cc1)CC2`, at Cytochrome P450 3A4, the pIC50 was less than 5.05. Moreover, in the data set on MES-SA/Dx5, the Activity was determined as 11%.
The corresponding values for `COc1cc(NC(=O)c2cc(=O)c3ccccc3o2)c(-c2nnn(-c3ccc(CCN4CCc5cc(-n6ccnc6)ccc5C4)cc3)n2)cc1OC` are 6.52 and 10%.
For `CC(=O)N1CCN(c2ccc(OCC3COC(Cn4ccnc4)(c4ccc(Cl)cc4Cl)O3)cc2)CC1` (configuration not stated) [KETOCONAZOLE], the Activity in the data set on MES-SA/Dx5 amounted to 39%.
